How the values were obtained:
Ba/F3 cells, ABL1 T315I = Ba/F3 cells, ABL1 T315I (Homo sapiens, UniProt P00519, T315I, cells depend on it); experiment: 96-well XTT cell survival assay, Ba/F3 ABL1 T315I; format: cell-based; conditions: 72 hours, read-out: ABL1 T315I XTT [Ba/F3] IC50
How it was run: (§1)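 Ba/F3 cells carrying wild-type or T315I ABL1 were seeded at 5000-8000 per well with graded compound concentrations in duplicate and grown 72 hours at 37° C. Survival was read by XTT/PMS reduction after a further 2-6 h, as absorbance at 405 nm with 650 nm background correction.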

[1] = target: T1, unphosphorylated T315I Abl kinase domain (Mus musculus, UniProt P00520, T315I); experiment: c-Abl T315I 0P bioassay (pyruvate kinase/lactate dehydrogenase coupled enzyme assay); format: biochemical; conditions: zero phosphorylation state (0P), 10 μM ATP, read-out: AbI T315I 0P IC50
T1 construct: purified and unphosphorylated T315I Abl kinase domain; made in house; host or cells: E. coli BL21(DE3) (Codon+RIL or pSA0145 strain)
T1 sequence (P00520 242-493 T315I limits assumed): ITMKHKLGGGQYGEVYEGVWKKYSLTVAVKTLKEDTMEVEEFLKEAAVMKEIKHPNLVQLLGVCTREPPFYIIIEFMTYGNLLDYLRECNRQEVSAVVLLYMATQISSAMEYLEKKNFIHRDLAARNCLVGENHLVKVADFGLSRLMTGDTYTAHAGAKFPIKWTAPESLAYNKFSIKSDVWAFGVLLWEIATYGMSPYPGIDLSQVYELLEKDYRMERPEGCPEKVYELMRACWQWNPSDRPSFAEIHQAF

Ba/F3 cells, ABL1 WT = Ba/F3 cells, ABL1 WT (Homo sapiens, UniProt P00519); experiment: 96-well XTT cell survival assay, Ba/F3 ABL1 WT; format: cell-based; conditions: 72 hours, read-out: ABL1 WT XTT [Ba/F3] IC50
How it was run: as §1

| SMILES | GI50 (Ba/F3 cells, ABL1 T315I) [nM] | IC50 [1] [nM] | GI50 (Ba/F3 cells, ABL1 WT) [nM] |
| --- | --- | --- | --- |
| COc1ccccc1-c1c[nH]c2ncc(-c3cccc(C(N)CC(=O)N4CCC[C@@H]4CO)c3)cc12 (stereo partly drawn) | > 1000 | < 50 | > 1000 |
| COC(=O)C1=C(C)NC(=O)NC1c1cccc(-c2cnc3[nH]cc(-c4ccccc4OC)c3c2)c1 (stereo not drawn) | > 1000 | < 50 | > 1000 |
| COc1ccccc1-c1c[nH]c2ncc(-c3cccc(C4NC(=O)NC(C)=C4C(=O)N(C)C)c3)cc12 (stereo not drawn) | > 1000 | < 50 | > 1000 |
| COc1ccccc1-c1n[nH]c2ncc(-c3cccc(C(O)C(=O)N(C)CCN(C)C)c3)cc12 (stereo not drawn) | < 1000 | < 50 | < 1000 |
| CCN(CC)CCN(CC)C(=O)C(O)c1cccc(-c2cnc3[nH]nc(-c4ccccc4OC)c3c2)c1 (stereo not drawn) | < 1000 | < 50 | < 1000 |
| CN(C)C(=O)C(O)c1cncc(-c2cnc3[nH]cc(-c4ccc(Cl)cc4)c3c2)c1 (stereo not drawn) | > 1000 | < 50 | < 1000 |
| COc1ccccc1-c1c[nH]c2ncc(-c3cncc([C@@H](O)C(=O)N(C)C)c3)cc12 | < 1000 | < 50 | < 1000 |
| COc1ccccc1-c1c[nH]c2ncc(-c3cncc([C@H](O)C(=O)N(C)C)c3)cc12 | < 1000 | < 50 | < 1000 |
| CN(C)C(=O)C(O)c1cncc(-c2cnc3[nH]cc(-c4ccc(Cl)c(Cl)c4)c3c2)c1 (stereo not drawn) | > 1000 | < 50 | > 1000 |
| COc1ccc(F)cc1-c1c[nH]c2ncc(-c3cncc(C(O)C(=O)N(C)C)c3)cc12 (stereo not drawn) | < 1000 | < 50 | < 1000 |
| COc1ccccc1-c1c[nH]c2ncc(-c3cncc(C(=O)C(=O)N(C)C)c3)cc12 | < 1000 | < 50 | < 1000 |
| COc1ccc(F)cc1-c1c[nH]c2ncc(-c3cc(C(O)C(=O)N(C)C)c[n+]([O-])c3)cc12 (stereo not drawn) | > 1000 | < 50 | > 1000 |
| Cc1ccc(-c2c[nH]c3ncc(-c4cncc(C(O)C(=O)N(C)C)c4)cc23)cc1 (stereo not drawn) | > 1000 | < 50 | > 1000 |
| CN(C)C(=O)C(O)c1cncc(-c2cnc3[nH]cc(-c4ccccc4)c3c2)c1 (stereo not drawn) | < 1000 | < 50 | < 1000 |
| CN(C)C(=O)C(O)c1cncc(-c2cnc3[nH]cc(-c4cncnc4)c3c2)c1 (stereo not drawn) | > 1000 | > 500 | > 1000 |
| Cc1cccc(-c2c[nH]c3ncc(-c4cncc(C(O)C(=O)N(C)C)c4)cc23)c1 (stereo not drawn) | < 1000 | < 50 | < 1000 |
| CN(C)C(=O)C(O)c1cncc(-c2cnc3[nH]cc(-c4cccc(C(F)(F)F)c4)c3c2)c1 (stereo not drawn) | > 1000 | < 50 | > 1000 |
| COc1ccc(-c2c[nH]c3ncc(-c4cncc(C(O)C(=O)N(C)C)c4)cc23)cc1 (stereo not drawn) | > 1000 | < 50 | > 1000 |
| CC(=O)c1ccccc1-c1c[nH]c2ncc(-c3cncc(C(O)C(=O)N(C)C)c3)cc12 (stereo not drawn) | > 1000 | 50 to 500 | > 1000 |
| CN(C)C(=O)C(O)c1cncc(-c2cnc3[nH]cc(-c4ccc(C#N)cc4)c3c2)c1 (stereo not drawn) | > 1000 | 50 to 500 | > 1000 |
| CN(C)C(=O)C(O)c1cncc(-c2cnc3[nH]cc(-c4cccc(F)c4F)c3c2)c1 (stereo not drawn) | < 1000 | < 50 | < 1000 |
| CN(C)C(=O)C(O)c1cncc(-c2cnc3[nH]cc(-c4ccc(OC(F)(F)F)cc4)c3c2)c1 (stereo not drawn) | > 1000 | 50 to 500 | > 1000 |
| CN(C)C(=O)C(O)c1cncc(-c2cnc3[nH]cc(-c4ccncc4)c3c2)c1 (stereo not drawn) | > 1000 | 50 to 500 | > 1000 |

| SMILES | GI50 (Ba/F3 cells, ABL1 T315I) [nM] | IC50 [1] [nM] | GI50 (Ba/F3 cells, ABL1 WT) [nM] |
| --- | --- | --- | --- |
| CN(C)C(=O)C(O)c1cncc(-c2cnc3[nH]cc(-c4cccc(S(C)(=O)=O)c4)c3c2)c1 (stereo not drawn) | > 1000 | > 500 | > 1000 |
| CN(C)C(=O)C(O)c1cncc(-c2cnc3[nH]cc(-c4ccc5c(c4)OCO5)c3c2)c1 (stereo not drawn) | > 1000 | < 50 | < 1000 |
| CN(C)C(=O)C(O)c1cncc(-c2cnc3[nH]cc(-c4ccc(F)cc4)c3c2)c1 (stereo not drawn) | > 1000 | < 50 | > 1000 |
| CN(C)C(=O)C(O)c1cncc(-c2cnc3[nH]cc(-c4cccnc4)c3c2)c1 (stereo not drawn) | > 1000 | 50 to 500 | > 1000 |
| CN(C)C(=O)C(O)c1cncc(-c2cnc3[nH]cc(-c4ccc(CO)cc4)c3c2)c1 (stereo not drawn) | > 1000 | < 50 | > 1000 |
| CN(C)C(=O)C(O)c1cncc(-c2cnc3[nH]cc(-c4ccc(N(C)C)cc4)c3c2)c1 (stereo not drawn) | > 1000 | 50 to 500 | > 1000 |
| CN(C)C(=O)C(O)c1cncc(-c2cnc3[nH]cc(-c4ccc(C(N)=O)cc4)c3c2)c1 (stereo not drawn) | > 1000 | < 50 | > 1000 |
| CN(C)C(=O)C(O)c1cncc(-c2cnc3[nH]cc(-c4ccccc4F)c3c2)c1 (stereo not drawn) | < 1000 | < 50 | < 1000 |
| CCc1ccccc1-c1c[nH]c2ncc(-c3cncc(C(O)C(=O)N(C)C)c3)cc12 (stereo not drawn) | < 1000 | < 50 | < 1000 |
| CN(C)C(=O)C(O)c1cncc(-c2cnc3[nH]cc(-c4ccccc4OC(F)(F)F)c3c2)c1 (stereo not drawn) | > 1000 | < 50 | < 1000 |
| CSc1ccccc1-c1c[nH]c2ncc(-c3cncc(C(O)C(=O)N(C)C)c3)cc12 (stereo not drawn) | < 1000 | < 50 | < 1000 |
| COc1ncccc1-c1c[nH]c2ncc(-c3cncc(C(O)C(=O)N(C)C)c3)cc12 (stereo not drawn) | > 1000 | < 50 | < 1000 |
| CN(C)C(=O)C(O)c1cncc(-c2cnc3[nH]cc(-c4ccccc4Cl)c3c2)c1 (stereo not drawn) | < 1000 | < 50 | < 1000 |
| CN(C)C(=O)C(O)c1cncc(-c2cnc3[nH]cc(-c4cccc(N(C)C)c4)c3c2)c1 (stereo not drawn) | > 1000 | < 50 | < 1000 |
| CN(C)C(=O)C(O)c1cncc(-c2cnc3[nH]cc(-c4cccc5c4OC(F)(F)O5)c3c2)c1 (stereo not drawn) | > 1000 | < 50 | < 1000 |
| CN(C)C(=O)C(O)c1cncc(-c2cnc3[nH]cc(-c4ccn[nH]4)c3c2)c1 (stereo not drawn) | > 1000 | < 50 | > 1000 |
| CN(C)C(=O)C(O)c1cncc(-c2cnc3[nH]cc(-c4ccnn4CC(F)(F)F)c3c2)c1 (stereo not drawn) | > 1000 | > 500 | > 1000 |
| COc1ccccc1-c1c[nH]c2ncc(-c3cnc(N)c(C(O)C(=O)N(C)C)c3)cc12 (stereo not drawn) | < 1000 | < 50 | < 1000 |
| CN(C)C(=O)C(O)c1cncc(-c2cnc3[nH]cc(-c4ccno4)c3c2)c1 (stereo not drawn) | > 1000 | < 50 | > 1000 |
| CN(C)C(=O)C(O)c1cncc(-c2cnc3[nH]cc(-c4ccnn4CCO)c3c2)c1 (stereo not drawn) | > 1000 | 50 to 500 | > 1000 |
| COc1ccccc1-c1c[nH]c2ncc(-c3cncc(C(O)C4CC4)c3)cc12 (stereo not drawn) | < 1000 | < 50 | < 1000 |
| COc1ccccc1-c1c[nH]c2ncc(-c3cncc(C(O)CC(C)C)c3)cc12 (stereo not drawn) | < 1000 | < 50 | < 1000 |
| CN(C)C(=O)C(O)c1cncc(-c2cnc3[nH]cc(-c4cnc(N)s4)c3c2)c1 (stereo not drawn) | > 1000 | < 50 | > 1000 |
